# “And” between values parts separate entries of the source, which are not always exact repeats. Identical values can stand only once. Like-named read-outs stand apart in the source and are kept apart here. Square brackets hold non-standard residues; d marks the D form. Peptide text beside a SMILES is read from it. * marks the point of attachment. dPhe(4-NHCONH2) = NC(=O)Nc1ccc(C[C@@H](N)C(=O)O)cc1; Dihydroorotyl(S) = O=C1C[C@@H](C(=O)*)NC(=O)N1; dPhe(4-Cl) = N[C@H](Cc1ccc(Cl)cc1)C(=O)O; Phe(4-NH2) = Nc1ccc(C[C@H](N)C(=O)O)cc1; d2Nal = N[C@H](Cc1ccc2ccccc2c1)C(=O)O; Lys(iPr) = CC(C)NCCCC[C@H](N)C(=O)O; d3Pal = N[C@H](Cc1cccnc1)C(=O)O
# Experiments:
# [1] = tested on: human CYP450 (cytochrome P450) system
# luteinizing hormone (LH) = test: Serum LH levels over time (clinical study CS21); type: in vivo, human; details: day 1; degarelix, ITT analysis set
# Method: (§1) The study also investigated whether degarelix is safe and effective with respect to achieving and maintaining testosterone suppression to castrate levels, evaluated as the proportion of patients with testosterone suppression ≦0.5 ng/mL during 12 months of treatment. […] The study also evaluated the pharmacokinetics of the degarelix dosing regimens investigated. Finally, the study examined the effects of using the degarelix treatment on patients suffering from different stages of cancer.
# (§2) Patients in two treatment groups received a degarelix starting dose of 240 mg at a concentration of 40 mg/mL (240@40) on day 0 administered as two equivalent subcutaneous (s.c.) injections of 120 mg each. Thereafter, patients received 12 additional single s.c. degarelix doses of either 80 mg at a concentration of 20 mg/mL (80@20: degarelix 240/80 mg group) or 160 mg at a concentration of 40 mg/mL (160@40: degarelix 240/160 mg group) administered s.c. every 28 days.
# (§3) The secondary efficacy endpoints were: the proportion of patients with testosterone surge during the first 2 weeks of treatment; the proportion of patients with testosterone level ≦0.5 ng/mL at day 3; the percentage change in PSA from baseline to day 28; the probability of testosterone ≦0.5 ng/mL from day 56 through day 364; the levels of serum testosterone, LH, FSH and PSA over time through the study; the time to PSA failure, defined as two consecutive increases of 50%, and at least 5 ng/mL as compared to nadir; degarelix concentration over the first month and trough levels at day 308 and 336; the frequency and size of testosterone increases at day 255 and/or 259 compared to the testosterone level at day 252; the quality of life on days 0, 28, 84, 168 and end of study visit; the frequency and intensity of hot flushes experienced (scored daily from study start until end of study visit). In addition, two further secondary endpoints were added: the probability of sufficient testosterone response from day 28 through day 364 (a patient was considered to have insufficient testosterone response if they had one testosterone value >1.0 ng/mL or two consecutive testosterone values >0.5 ng/mL at day 28 onwards); and the percentage change in PSA from baseline to day 14.
# testosterone = type: in vivo, human; details: for overall proportion of patients with testosterone ≦0.5 ng/mL from day 28 to day 364: observed cases analysis
# Method: The study also evaluated the pharmacokinetics of the degarelix dosing regimens investigated. Finally, the study examined the effects of using the degarelix treatment on patients suffering from different stages of cancer. […] The primary efficacy endpoint was the probability of testosterone levels remaining ≦0.5 ng/mL from day 28 through day 364. […] The primary efficacy endpoint was analyzed for both the ITT and PP analysis sets, with the ITT analysis set considered primary. The primary efficacy endpoint was analyzed using the Kaplan Meier method. For each of the three treatment groups, testosterone response rates with 95% confidence interval (CI) were calculated by log-log transformation of survivor function. […] All secondary efficacy endpoints were analyzed for both the ITT and PP analysis sets, unless otherwise stated. […] The percentage change in PSA from baseline to day 28 endpoint was analyzed by a Wilcoxon test.
# [2] = tested on: serum alkaline phosphatase (S-ALP); test: S-ALP analysis in prostate cancer patients (clinical study CS21); type: in vivo, human; details: Degarelix 240/80 mg
# Method: Patients with histologically confirmed adenocarcinoma of the prostate (all stages), for whom androgen deprivation therapy was indicated were recruited. Baseline characteristics were well balanced between groups. Approximately half of patients had locally advanced (29.2%) or metastatic (20.5%) disease at baseline. […] Patients receiving leuprolide could also receive bicalutamide for clinical flare protection. The S-ALP levels were measured in each patient at various time points, by taking a blood sample and analyzing for S-ALP. S-ALP levels were measured using a standardized colorimetric assay based on the p-nitrophenyl phosphate AMP buffer method. The normal range for S-ALP is 44-147 IU/L. The S-ALP values in non-metastatic patients serve as controls. An ANOVA analysis with treatment and day as factors and baseline value as covariate was used to determine between treatment differences at Day 364. A repeated measures analysis (incorporating all time points from Day 112) with treatment and day as factors and baseline value as covariate was used to assess between treatment differences from Day 112 to Day 364.
# in vitro = details: plasma
# [3] = tested on: follicle stimulating hormone (FSH); test: Serum FSH levels over time (clinical study CS21); type: in vivo, human; details: by day 7; degarelix
# Method: as §1, §2, §3
# [4] = human, in vivo, sc
# [5] = human, in vivo
# [6] = tested on: prostate-specific antigen (PSA); test: PSA failure in prostate cancer patients (clinical study CS21); type: in vivo, human; details: for proportion of PSA failures: degarelix 240/80 mg
# Method: For this analysis, PSA failure (a secondary endpoint) was defined as two consecutive increases in PSA of 50% and 5 ng/mL compared with nadir. The time to PSA failure was defined as the number of days from first dosing to where an increase in serum PSA of 50% from nadir and 5 ng/mL, measured on two consecutive occasions at least two weeks apart, was noted. The second occasion was the time point of meeting the criterion. PSA failure rates were also analyzed by disease stage and baseline PSA level.
# as §3
# The secondary endpoints, probability of testosterone ≦0.5 ng/mL from day 56 through day 364, time to PSA failure, and probability of sufficient testosterone response from day 28 through day 364 were analyzed by the Kaplan-Meier method.
compound,measurement,setting,value
"CC(=O)N[C@H](Cc1ccc2ccccc2c1)C(=O)N[C@H](Cc1ccc(Cl)cc1)C(=O)N[C@H](Cc1cccnc1)C(=O)N[C@@H](CO)C(=O)N[C@@H](Cc1ccc(NC(=O)[C@@H]2CC(=O)NC(=O)N2)cc1)C(=O)N[C@H](Cc1ccc(NC(N)=O)cc1)C(=O)N[C@@H](CC(C)C)C(=O)N[C@@H](CCCCNC(C)C)C(=O)N1CCC[C@H]1C(=O)N[C@H](C)C(N)=O [degarelix, D-Alaninamide, N-acetyl-3-(2-naphthalenyl)-D-alanyl-4-chloro-D-phenylalanyl-3-(3-pyridinyl)-D-alanyl-L-seryl-4-[[[(4S)-hexahydro-2,6-dioxo-4-pyrimidinyl]carbonyl]amino]-L phenylalanyl-4-[(aminocarbonyl)amino]-D-phenylalanyl-L leucyl-N6-(1-methylethyl)-L-lysyl-L-prolyl] (Ac-[d2Nal][dPhe(4-Cl)][d3Pal]S[Phe(4-NH2)](Dihydroorotyl(S))[dPhe(4-NHCONH2)]L[Lys(iPr)]P[dA]-NH2)",substrate for the human CYP450 system,[1],not a substrate
same,decrease of median LH from baseline,luteinizing hormone (LH),approximately 88%
same,median LH level,luteinizing hormone (LH),< 0.7 IU/L
same,median testosterone level,"testosterone; 240 mg then monthly 80 mg, after one year",0.087 ng/mL
same,patients with sustained testosterone suppression,"testosterone; 240 mg then monthly 80 mg, at least one year",97%
same,Kaplan-Meier estimate of the probability of testosterone ≦0.5 ng/mL from day 28 to day 364,testosterone; degarelix 240/80 mg group,97.2%
same,Kaplan-Meier estimate of the probability of testosterone ≦0.5 ng/mL from day 28 to day 364,testosterone; degarelix 240/160 mg group,98.3%
same,proportion of patients with testosterone surge (increase 15% from baseline),"testosterone; human, in vivo",0.2%
same,overall proportion of patients with testosterone ≦0.5 ng/mL from day 28 to day 364,testosterone; degarelix 240/80 mg group,97.0%
same,overall proportion of patients with testosterone ≦0.5 ng/mL from day 28 to day 364,testosterone; degarelix 240/160 mg group,98.2%
same,patients exhibiting testosterone suppression on day 3,testosterone; patients receiving degarelix,96%
same,S-ALP mean change from baseline,"[2]; Localized, Day 112",+5 IU/L
same,S-ALP mean change from baseline,"[2]; Localized, Day 224",+8 IU/L
same,S-ALP mean change from baseline,"[2]; Localized, Day 364",+10 IU/L
same,S-ALP mean change from baseline,"[2]; Locally advanced, Day 112",+6 IU/L
same,S-ALP mean change from baseline,"[2]; Locally advanced, Day 224",+7 IU/L
same,S-ALP mean change from baseline,"[2]; Locally advanced, Day 364",+10 IU/L
same,S-ALP mean change from baseline,"[2]; Metastatic (Hb < 130 g/L), Day 112",−160 IU/L
same,S-ALP mean change from baseline,"[2]; Metastatic (Hb < 130 g/L), Day 224",−200 IU/L
same,S-ALP mean change from baseline,"[2]; Metastatic (Hb < 130 g/L), Day 364",−230 IU/L
same,S-ALP mean change from baseline,"[2]; Metastatic, Day 112",−90 IU/L
same,S-ALP mean change from baseline,"[2]; Metastatic, Day 224",−100 IU/L
same,S-ALP mean change from baseline,"[2]; Metastatic, Day 364",−90 IU/L
same,S-ALP mean change from baseline,"[2]; baseline PSA 10-20 ng/mL, Day 112",+5 IU/L
same,S-ALP mean change from baseline,"[2]; baseline PSA 10-20 ng/mL, Day 224",+8 IU/L
same,S-ALP mean change from baseline,"[2]; baseline PSA 10-20 ng/mL, Day 364",+13 IU/L
same,S-ALP mean change from baseline,"[2]; baseline PSA 20-50 ng/mL, Day 112",+5 IU/L
same,S-ALP mean change from baseline,"[2]; baseline PSA 20-50 ng/mL, Day 224",+7.5 IU/L
same,S-ALP mean change from baseline,"[2]; baseline PSA 20-50 ng/mL, Day 364",+4.5 IU/L
same,S-ALP mean change from baseline,"[2]; baseline PSA < 10 ng/mL, Day 112",+4.5 IU/L
same,S-ALP mean change from baseline,"[2]; baseline PSA < 10 ng/mL, Day 224",+5.5 IU/L
same,S-ALP mean change from baseline,"[2]; baseline PSA < 10 ng/mL, Day 364",+7 IU/L
same,S-ALP mean change from baseline,"[2]; baseline PSA > 50 ng/mL, Day 112",−60 IU/L
same,S-ALP mean change from baseline,"[2]; baseline PSA > 50 ng/mL, Day 224",−70 IU/L
same,S-ALP mean change from baseline,"[2]; baseline PSA > 50 ng/mL, Day 364",−60 IU/L
same,fraction unbound,in vitro,~0.1
same,decrease of median FSH from baseline,[3],> 80%
same,median FSH level,[3],≤ 1.5 IU/L
same,significant metabolites in plasma samples,[4],No significant metabolites were detected
same,AUC,[4]; 240 mg,1240 ng·days/mL
same,tolerability,[5],generally well tolerated
same,probability of completing the study without experiencing PSA failure by day 364,[6]; degarelix 240/80 mg group,91.1% and 91.2%
same,proportion of PSA failures,[6]; patients with baseline PSA>50 ng/mL,29.2%
same,proportion of PSA failures,[6]; patients with metastatic disease at baseline,21.6%

# — US9877999B2, “Methods for treating metastatic stage prostate cancer” (Ferring International SA, priority 2008, dated 2018)
